For one data set, the system named is CDK4. Briefly: Western immunoblotting of CDK4 protein levels. It counts as cell-based, human. As to the method: (§1) A375Hu cells were seeded in 6-well plates and transfected with different concentrations (1, 10 and 100 nM) of synthetic hsa-miR-3157 or BRAF siRNA (100 nM) using RNAiMAX (7.5 μl/well). As control a scrambled miRNA and a non-targeting siRNA pool were included. Proteins were harvested 72 hrs post transfection using RIPA buffer supplemented with HALT™ Phosphatase Inhibitor (Thermo Scientific) and Protease Inhibitor Cocktail (Sigma). Fifteen μg protein was loaded on 7.5% TGX acrylamide gels (Bio-Rad) and subsequently transferred to PVDF membranes. The membranes were blocked in 5% milk in TBS-T and incubated O/N at 4° C. with primary antibodies to bRAF, total ERK1/2, phosphoERK1/2, CDK4, BCL2 and tubulin (Santa Cruz). After incubation with secondary goat-anti-mouse antibodies (Santa Cruz), membranes were developed using ECL (Pierce).
as §1, with “concentrations” for “concentrations (1, 10 and 100 nM)”, “vemurafenib (PLX-4032, 0.01, 0.1, 1 uM).” for “synthetic hsa-miR-3157 or BRAF siRNA (100 nM) using RNAiMAX (7.5 μl/well). As control a scrambled miRNA and a non-targeting siRNA pool were included.”
(§2) A2058 cells were seeded in 6-well plates and transfected with different concentrations (1, 10 and 100 nM) of synthetic hsa-miR-3157-5p or BRAF siRNA using X-TremeGene (Roche, 15 μl/well). As control a scrambled miRNA was included. Proteins were harvested 72 hrs post transfection using RIPA buffer supplemented with HALT™ Phosphatase Inhibitor (Thermo Scientific) and Protease Inhibitor Cocktail (Sigma). Fifteen μg protein was loaded on 10% TGX acrylamide gels (Bio-Rad) and subsequently transferred to PVDF membranes. The membranes were blocked in 5% milk in TBS-T and incubated O/N at 4° C. with primary antibodies to bRAF, total ERK1/2, phosphoERK1/2, BCL2, CDK4 and tubulin (Santa Cruz). After incubation with secondary goat-anti-mouse antibodies (Santa Cruz), membranes were developed using ECL (Pierce).
(§3) Transfection was performed as described in Example 4 in 6-well format. Proteins were isolated using RIPA buffer (50 mM Tris pH 8.0, 150 mM NaCL, 1% NP-40, 0.5% Sodium deoxycholate, 0.1% SDS), supplemented with Protease Inhibitor Cocktail (Sigma) and Halt™ Phosphatase Inhibitor Cocktail (Pierce/Thermo Scientific). Fifteen μg protein was loaded on a 12% Mini-PROTEAN® TGX™ Precast Gel (Bio-Rad), and proteins were transferred to Immun-Blot PVDF Membrane (Bio-Rad). Membranes were blocked in 5% milk or 5% BSA in TBS-T, and incubated O/N at 4° C. with primary antibodies against α-tubulin (1:5000), BRAF, pERK1/2, CDK4, RRM2 (all 1:1000), BCL-2 (1:500) (Santa Cruz), total-ERK1/2 (1:2000), BIRC5, AURKB (1:1000) (Cell Signaling), ERK1 (1:2000) (GeneTex). After incubation with appropriate secondary antibodies and western blot chemiluminescence substrate ECL (Pierce/Thermo Scientific), membranes were exposed to CL-XPosure Film (Pierce/Thermo Scientific).
A general note: In western blotting, separated proteins are transferred to a membrane and probed.

The subject of data set [1] is phospho-ERK1/2. Briefly: Western immunoblotting of phospho-ERK1/2 protein levels. It counts as cell-based, human. The settings on record: Western blot. As to the method: as §1, with “(10, 50” for “(1, 10”, “hsa-miR-129-5p” for “hsa-miR-3157”, “bRAF,” for “bRAF, total ERK1/2,”, “CDK6,” for “CDK4, BCL2”
as §1
as §1, with “concentrations” for “concentrations (1, 10 and 100 nM)”, “vemurafenib (PLX-4032, 0.01, 0.1, 1 uM).” for “synthetic hsa-miR-3157 or BRAF siRNA (100 nM) using RNAiMAX (7.5 μl/well). As control a scrambled miRNA and a non-targeting siRNA pool were included.”
as §2
Transfection was performed as described in Example 4 in 6-well format. Proteins were isolated using RIPA buffer (50 mM Tris pH 8.0, 150 mM NaCL, 1% NP-40, 0.5% Sodium deoxycholate, 0.1% SDS), supplemented with Protease Inhibitor Cocktail (Sigma) and Halt™ Phosphatase Inhibitor Cocktail (Pierce/Thermo Scientific). […]

A further data set relates to BIRC5. Briefly: Western blotting of BIRC5 protein levels. It counts as cell-based, human. As to the method:
as §3

Data set [2] concerns phospho-ERK1/2. To be noted: cited from earlier work.
Data set [3] concerns M249-AR (M249-R4) melanoma cell line. Briefly: Anti-proliferative effect of miRNA mimics, MTS assay. It counts as cell-based. The settings on record: 30 nM mimic, 72 hours after transfection. As to the method: The anti-proliferative effect of miRNA's in melanoma cell lines was determined with mature miRNA mimics from Ambion. For each cell line optimal growth and transfection conditions were determined prior to the experiment. Cells were plated in a 96-well plate at 3000 cells per well (100 uL) and were grown at 37 C, 5% CO2. Transfection mix (20 uL per well) was made for each miRNA mimic concentration with 0.3 uL (M249, M249-R4) or 0.5 uL (A375Hu, A375Hu-R1, A2058, RPMI-7951) X-TremeGene (Roche) per well (according to manufacturer's instructions) in Optimem (Invitrogen). Cells were transfected 24 hours after plating in triplicate. Medium was replaced 48 hours after transfection with fresh medium.
(In general: Formazan colour is commonly taken as a measure of viable cells.)

Where [4] appears, read: A375 cells, increasing concentrations of mimic (FIG. 12c).

Entries after “also recorded” stand apart in the source; their conditions may differ. Like-named read-outs stand apart in the source and are kept apart here.

This is an account of results in patent US10201556B2, “Combination for use in treating diseases or conditions associated with melanoma, or treating diseases or conditions associated with activated B-raf pathway” (InteRNA Technologies B.V., priority 2012, dated 2019).

Regarding `CCCS(=O)(=O)Nc1ccc(F)c(C(=O)c2c[nH]c3ncc(-c4ccc(Cl)cc4)cc23)c1F` [Vemurafenib, N-(3-{[5-(4-chlorophenyl)-1H-pyrrolo[2,3-b]pyridin-3-yl]carbonyl}-2,4-difluorophenyl)propane-1-sulfonamide], the CDK4 protein levels result in the data set on CDK4 (A375Hu cells, 72 hrs, Western blot, listed as PLX-4032) was “not in reduction of CDK4 and BCL2 protein levels”. For the same molecule, the phospho-ERK1/2 protein levels result with phospho-ERK1/2 [1] (A375Hu cells, 72 hrs) is “inhibits”; in the data set with phospho-ERK1/2 [1] (A375Hu cells, 72 hrs, listed as PLX-4032), “down regulation”. The BIRC5 protein levels entry is listed as “protein levels similar to control-treated cells” in the data set with BIRC5 (vemurafenib-resistant A2058, M249-AR4 and M376, 1 μM, 24 hrs (FIG. 14b)); “downregulated” in the data set on BIRC5 (vemurafenib-sensitive A375 and M249, 1 μM, 24 hrs (FIG. 14b)). Also, the pERK entry in the data set on phospho-ERK1/2 [2] (A375, A2058 and M249 (Atefi et al. 2011, Nazarian et al. 2010)) is recorded as “downregulates”; in the data set on phospho-ERK1/2 [2] (M249-AR4 and M376 (Atefi et al. 2011, Nazarian et al. 2010)), “not”.

Regarding “hsa-miR-3157-5p: mature miRNA mimic, SEQ ID NO 6 UUCAGCCAGGCUAGUGCAGUCU (listed as RNA, chemistry not given here)”, the CDK4 protein levels result is given as “significant reduction in CDK4 protein levels; also recorded: down-regulated” in the data set on CDK4 (A375Hu cells, 72 hrs, Western blot); “strong reduction” with CDK4 (setting [4]); “mild effect” with CDK4 (A2058, increasing concentrations of mimic (FIG. 14a)); “reduction; also recorded: down-regulated” in the data set on CDK4 (A2058 cells (vemurafenib resistant), 72 hrs post transfection, Western blot); “no effect” with CDK4 (M249-AR4, increasing concentrations of mimic (FIG. 14a)); “strong downregulation” with CDK4 (M249 and M376, increasing concentrations of mimic (FIG. 14a)). Moreover, the phospho-ERK1/2 protein levels result in the data set on phospho-ERK1/2 [1] (A375Hu cells, 72 hrs) is recorded as “does not down-regulate; also recorded: not affected”; in the data set with phospho-ERK1/2 [1] (A2058 cells (vemurafenib resistant), 72 hrs post transfection) it was “not down-regulated”. In data set [3], the “M249-AR % Viability 30 nM” value is recorded as 53%. Also, the BIRC5 protein levels result in the data set on BIRC5 (setting [4]) is given as “most pronounced”; with BIRC5 (A2058, M249, M249-AR4 and M376, increasing concentrations of mimic (FIG. 14a)), “strong downregulation”.
